Reference: patent US20170159101A1, “DRUG-RESISTANT P97 ATPASE MUTATIONS” (Cleave Biosciences, Inc., priority 2014, published 2017)

Key:
[1] = system: Hct116 resistant cell line clone #31 (p97 C535Y); test: GI50 fold-change, resistant clone #31 vs parental; type: cell-based, human; conditions: Clone #31, Hct116, resistance generated with compound 4, G1604A / C535Y; 72 hrs
Method: (§1) Dose titration of test compounds were conducted in Hct116, DLD-1, or LoVo cell lines. In brief, cells were plated in 384-well plates and a selected candidate drug compound was added in a 10-point 2-fold serial dilution.

[2] = system: Hct116 resistant cell line clone #29 (p97 N660K); test: GI50 fold-change, resistant clone #29 vs parental; type: cell-based, human; conditions: Clone #29, Hct116, resistance generated with compound 4, C1980A / N660K; 72 hrs
Method: as §1

[3] = system: DLD-1 resistant cell line clone #83 (p97 N660N/D); test: GI50 fold-change, resistant clone #83 vs parental; type: cell-based, human; conditions: Clone #83, DLD-1, resistance generated with compound 4, A1978G/A / N660N/D; 72 hrs
Method: as §1

[4] = system: Hct116 resistant cell line clone #180 (p97 A569T); test: GI50 fold-change, resistant clone #180 vs parental; type: cell-based, human; conditions: Clone #180, Hct116, resistance generated with compound 4, G1705A / A569T; 72 hrs
Method: as §1

[5] = system: DLD-1 resistant cell line clone #82 (p97 A569A/T); test: GI50 fold-change, resistant clone #82 vs parental; type: cell-based, human; conditions: Clone #82, DLD-1, resistance generated with compound 4, G1705G/A / A569A/T; 72 hrs
Method: as §1

[6] = system: Hct116 resistant cell line clone #22 (p97 N660D); test: GI50 fold-change, resistant clone #22 vs parental; type: cell-based, human; conditions: Clone #22, Hct116, resistance generated with compound 4, A1978G / N660D; 72 hrs
Method: as §1

[7] = system: Hct116 resistant cell line clone #7 (p97 A659T); conditions: Clone #7, Hct116, resistance generated with compound 3, G1975A / A659T; 72 hrs
[8] = system: DLD-1 resistant cell line clone #87 (p97 S541P); test: GI50 fold-change, resistant clone #87 vs parental; type: cell-based, human; conditions: Clone #87, DLD-1, resistance generated with compound 4, T1621T/C / S541P; 72 hrs
Method: as §1

[9] = system: Hct116 resistant cell line clone #47 (p97 E498D); test: GI50 fold-change, resistant clone #47 vs parental; type: cell-based, human; conditions: Clone #47, Hct116, resistance generated with compound 4, G1494T / E498D; 72 hrs
Method: as §1

[10] = system: Hct116 resistant cell line clone #2 (p97 V474A); test: GI50 fold-change, resistant clone #2 vs parental; type: cell-based, human; conditions: Clone #2, Hct116, resistance generated with compound 2, T1421C / V474A; 72 hrs
Method: as §1

[11] = system: Hct116 resistant cell line clone #108 (p97 P646T); test: GI50 fold-change, resistant clone #108 vs parental; type: cell-based, human; conditions: Clone #108, Hct116, resistance generated with compound 4, C1936A / P646T; 72 hrs
Method: (§2) Dose titration of test compounds were conducted in Hct116, DLD-1, or LoVo cell lines. In brief, cells were plated in 384-well plates and a selected candidate drug compound was added in a 10-point 2-fold serial dilution. […] Hct116 cells were plated at 50,000 cells per 15 cm dish and treated with GI50-GI90 doses of test compound for 2-4 weeks until individual colonies of cells were visible on the plate.

[12] = system: Hct116 resistant cell line clone #8 (p97 N660D); test: GI50 fold-change, resistant clone #8 vs parental; type: cell-based, human; conditions: Clone #8, Hct116, resistance generated with compound 3, A1978G / N660D; 72 hrs
Method: as §1

[13] = system: Hct116 resistant cell line clone #1 (p97 D649N); test: GI50 fold-change, resistant clone #1 vs parental; type: cell-based, human; conditions: Clone #1, Hct116, resistance generated with compound 2, G1945A / D649N; 72 hrs
Method: as §1

[14] = system: Hct116 resistant cell line clone #5 (p97 D649A); conditions: Clone #5, Hct116, resistance generated with compound 2, A1946C / D649A; 72 hrs
[15] = system: DLD-1 resistant cell line clone #61 (p97 I620I/L); test: GI50 fold-change, resistant clone #61 vs parental; type: cell-based, human; conditions: Clone #61, DLD-1, resistance generated with compound 4, T1859T/C / I620I/L; 72 hrs
Method: as §1

[16] = system: DLD-1 resistant cell line clone #58 (p97 D649D/N); test: GI50 fold-change, resistant clone #58 vs parental; type: cell-based, human; conditions: Clone #58, DLD-1, resistance generated with compound 4, G1945G/A / D649D/N; 72 hrs
Method: as §1

[17] = system: Hct116 resistant cell line clone #25 (p97 P500T); test: GI50 fold-change, resistant clone #25 vs parental; type: cell-based, human; conditions: Clone #25, Hct116, resistance generated with compound 4, C1498A / P500T; 72 hrs
Method: as §1

[18] = system: Hct116 resistant cell line clone #6 (p97 A528T); test: GI50 fold-change, resistant clone #6 vs parental; type: cell-based, human; conditions: Clone #6, Hct116, resistance generated with compound 2, G1582 / A528T; 72 hrs
Method: as §1

[19] = system: Hct116 resistant cell line clone #45 (p97 F539I); test: GI50 fold-change, resistant clone #45 vs parental; type: cell-based, human; conditions: Clone #45, Hct116, resistance generated with compound 4, T1615A / F539I; 72 hrs
Method: as §1

[20] = system: Hct116 resistant cell line clone #30 (p97 F516L); test: GI50 fold-change, resistant clone #30 vs parental; type: cell-based, human; conditions: Clone #30, Hct116, resistance generated with compound 4, T1546C / F516L; 72 hrs
Method: as §1

[21] = system: Hct116 resistant cell line clone #27 (p97 T688A); test: GI50 fold-change, resistant clone #27 vs parental; type: cell-based, human; conditions: Clone #27, Hct116, resistance generated with compound 4, A2062G / T688A; 72 hrs
Method: as §1

[22] = system: Hct116 resistant cell line clone #34 (p97 E470D/E); test: GI50 fold-change, resistant clone #34 vs parental; type: cell-based, human; conditions: Clone #34, Hct116, resistance generated with compound 4, G1410T/G / E470D/E; 72 hrs
Method: as §1

[23] = system: Hct116 resistant cell line clone #152 (p97 T688I); test: GI50 fold-change, resistant clone #152 vs parental; type: cell-based, human; conditions: Clone #152, Hct116, resistance generated with compound 4, C2063T / T688I; 72 hrs
Method: as §2

Row | SMILES | Fold Change in GI50 Compared to Parental Cell Line [1] [fold] | Fold Change in GI50 Compared to Parental Cell Line [2] [fold] | Fold Change in GI50 Compared to Parental Cell Line [3] [fold] | Fold Change in GI50 Compared to Parental Cell Line [4] [fold] | Fold Change in GI50 Compared to Parental Cell Line [5] [fold] | Fold Change in GI50 Compared to Parental Cell Line [6] [fold] | Fold Change in GI50 Compared to Parental Cell Line [7] [fold] | Fold Change in GI50 Compared to Parental Cell Line [8] [fold] | Fold Change in GI50 Compared to Parental Cell Line [9] [fold] | Fold Change in GI50 Compared to Parental Cell Line [10] [fold] | Fold Change in GI50 Compared to Parental Cell Line [11] [fold] | Fold Change in GI50 Compared to Parental Cell Line [12] [fold] | Fold Change in GI50 Compared to Parental Cell Line [13] [fold] | Fold Change in GI50 Compared to Parental Cell Line [14] [fold] | Fold Change in GI50 Compared to Parental Cell Line [15] [fold] | Fold Change in GI50 Compared to Parental Cell Line [16] [fold] | Fold Change in GI50 Compared to Parental Cell Line [17] [fold] | Fold Change in GI50 Compared to Parental Cell Line [18] [fold] | Fold Change in GI50 Compared to Parental Cell Line [19] [fold] | Fold Change in GI50 Compared to Parental Cell Line [20] [fold] | further results
1 | Cc1cc2c(C(N)=O)cccc2n1-c1nc2c(c(NCc3ccccc3)n1)COCC2 [Compound 4, 1-[4-(benzylamino)-5H,7H,8H-pyrano[4,3-d]pyrimidin-2-yl]-2-methyl-1H-indole-4-carboxamide] | 4.6 | 16.5 | 2.7 | 5.9 | 6.6 | 3.1 | 3.8 | 39.8 | 2.4 | 8.7 | 2.0 | 1.8 | 20.0 | 18.7 | 1.3 | 1.8 | 1.6 | 11.8 | 6.4 | 7.1 | Fold Change in GI50 Compared to Parental Cell Line [21]: 50.3 fold; Fold Change in GI50 Compared to Parental Cell Line [22]: 3.7 fold; Fold Change in GI50 Compared to Parental Cell Line [23]: 60.7 fold
2 | CC(C)C[C@H](NC(=O)[C@H](Cc1ccccc1)NC(=O)c1cnccn1)B(O)O [Compound 1, [(1R)-3-methyl-1-[(2S)-3-phenyl-2-(pyrazin-2-ylformamido)propanamido]butyl]boronic acid, reference compound] | 0.9 | 0.9 | 1.2 | 0.8 | 1.5 | 1.0 | 0.9 | 1.1 | 0.8 | 1.0 | 0.9 | 0.8 | 1.0 | 1.0 | 0.8 | 1.3 | 1.3 | 1.1 | 0.8 | 0.9 | Fold Change in GI50 Compared to Parental Cell Line [21]: 1.1 fold; Fold Change in GI50 Compared to Parental Cell Line [22]: 0.8 fold; Fold Change in GI50 Compared to Parental Cell Line [23]: 1.0 fold
